{"source": "patent US20070009961A1", "about": "“Identification of targeting component of herbal medicines from simplified HPLC spectrum using after flowing through immobilized receptor (AFTIR) method” (Academia Sinica, priority 2005, published 2007)", "molecules": {"B1": {"name": "CD80-mulg, soluble fusion protein consisting of the extracellular (173 aa) domain of human CD80 fused to murine IgG2a Fc (232 aa) (Fc fusion, UniProt P33681 35-242, looked up)", "chain": "VIHVTKEVKEVATLSCGHNVSVEELAQTRIYWQKEKKMVLTMMSGDMNIWPEYKNRTIFDITNNLSIVILALRPSDEGTYECVVLKYEKDAFKREHLAEVTLSVKADFPTPSISDFEIPTSNIRRIICSTSGGFPEPHLSWLENGEELNAINTTVSQDPETELYAVSSKLDFNMTTNHSFMCLIKYGHLRVNQTFNWNTTKQEHFPDN", "notes": "extracellular domain; Bought from ID Labs Inc; purified from CHO transfectant supernatant; Used as the soluble analyte in SPR; also called Human CD80-mulg; not shown: murine IgG2a Fc (232 aa)"}}, "key": {"[1]": {"biological_target": "T1, CD28-mulg (extracellular domain of human CD28 fused to murine IgG2a Fc), immobilized on CM5 chip (Homo sapiens, UniProt P10747)", "T1 construct": "soluble fusion protein consisting of the extracellular (134 aa) domain of human CD28; purchased ID Labs Inc; host or cells: CHO transfectants", "assay": "Surface plasmon resonance (BIAcore) binding to chip immobilised CD28 / AFTIR", "description": "Receptors and proteins. Human CD28-mulg and CD80-mulg fusion proteins were purchased from ID Labs Inc. CD28-mulg is a soluble fusion protein consisting of the extracellular (134 aa) domain of human CD28 fused to murine IgG2a Fc (233 aa). CD80-mulg is a soluble fusion protein consisting of the extracellular (173 aa) domain of human CD80 fused to murine IgG2a Fc (232 aa). Both were purified from tissue culture supernatant of CHO transfectants by protein A and size exclusion chromatography. Anti-human CD28 antibody and anti-human CD3 antibody were purchased from BioLegend. In the experiments, the quantity of anti-CD28 and CD80 used is only around 2% the quantity of CD28 immobilized.\nSurface plasmon resonance analysis. BIAcore 3000 (Biacore, Uppsala, Sweden) was employed for real-time biospecific interaction analysis. Binding analysis was performed at 25° C. with a flow rate of 10 μl/min. In general, proteins can be immobilized on the layer of carboxylated dextran in CM5 sensor chip (research grade; Biacore) by amine coupling. With each injection, samples were diluted in the running buffer HBS (10 mM HEPES, pH 7.4, 150 mM NaCl, 3.4 mM EDTA, 0.005% surfactant P20) to a final concentration of 15 to 30 μM. After each injection, flow-cell can be regenerated by flowing though the cell with the buffer containing 50 mM NaOH. Extracts were injected at different concentrations from 1.9 μM to 60 μM. The binding constant between immobilized receptor (imm-CD28) and ligand was determined using BIAevaluation 3.1 software (Biacore).\nCD28-mulg, a soluble fusion protein consisting of the extracellular (134 aa) domain of human CD28 fused to murine IgG2a Fc (233 aa), was immobilized to dextran matrix on the sensor chip surface, via covalent coupling of primary amines (—NH2). In this report, the term CD28 will be used as shorthand for CD28-mulg. […]\nThe RU as shown in FIGS. 5b-5d is the actual RU subtracted by the “background RU”. […] Affinity binding constants (1/KD) can be obtained from KD, where KD is calculated from Scatchard plots. […]"}, "[2]": {"system": "CD28 dependent IL-2 expression in Jurkat cells", "assay": "Jurkat T-cell IL-2 secretion (ELISA), CD28-dependent stimulation (anti-CD3 plus anti-CD28)", "type": "cell-based, human", "experimental": "Stimulation of T-cell. Jurkat leukemic T cells were maintained in a humidified atmosphere of 5% CO2/95% air at 37° C. in RPMI-1640 medium (HyClone, Utah, USA) including penicillin, streptomycin and 10% heat-inactivated FBS. Two modes of activations were used for the present experiments: anti-CD3 plus anti-CD28 (CD28-dependent stimulation) and PMA plus ionomycin (CD28-independent stimulation). For experiment of CD28-dependant stimulation, flat-bottom 96-well plates were coated with 10 μg/ml of anti-CD3 for 24 h at 4° C. Wells anti-CD3 were washed twice with PBS. After washing, the unbounded anti-CD3 was removed. Jurkat T-cells (200 μl 2×10^6 cells/ml) with soluble anti-CD28 (1 μg/ml) were then added into the wells. The cells were activated by anti-CD3 already existing in the wells. Upon the activation, the cell solution was stayed for 24 h. The supernatant (100 μl) of cell solution was then used for the measurement of IL-2 by enzyme-linked immuno-sorbent assay (ELISA). For experiment of CD28-indepentant stimulation, 200 μl Jurkat cell (5×10^5 cell/ml) were incubated with PMA (50 nM)/lonomycin (1 μg/ml) for 24 h. 100 μl supernatant was then used for IL-2 measurement by ELISA. […] The culture supernatants in both modes were harvested after 24h incubation and then used for the measurements of IL-2. IL-2 measurement was done using the commercial available ELISA kit (Biosource; California, US). The details how to measure the concentration of IL-2 after T-cell is activated is shown below. IL-2 ELISA assay. IL-2 concentration of T-cell was determined by following the instruction from manufacturer (Biosource; California, US). A 96-well flat-bottom plate was coated with anti-IL-2 mAb (100 μl at 4 μg/ml) in phosphate-buffered saline (PBS; pH 7.3) at room temperature overnight. The plate was then washed with PBS containing 0.05% Tween 20 (PBS-T) three times. Subsequently, the plate was incubated with a blocking solution containing 1% bovine serum albumin in PBS for more than 1 hr. After washing by PBS-T, 100 μl supernatant mixed with biotinylated anti-IL-2 detection antibodies (50 μl at 12.5 ng/ml) was added into each well and stay for 2 hr. After washing, 100 μl streptavidin horseradish peroxidase (1/2000 dilution of a 1.25 mg/ml solution) was added and the solution was incubated for 30 min at room temperature. After washing, 100 μl substrate solution containing 1/1 mixture of H2O2 and tetramethylbenzidine was added and the solution was incubated for 25min at room temperature. The solution reaction involving the stimulated sample was ceased by the addition of 100 μl stop solution (1M H2SO4). Concentration of IL-2 was then measured with microplate reader. The amount of IL-2 was indicated by the relative percentage ([…] of IL-2 is defined as 100%). […]"}, "[3]": {"system": "CD28-independent IL-2 response of Jurkat cells", "assay": "Jurkat T-cell IL-2 secretion (ELISA), CD28-independent stimulation (PMA plus ionomycin)", "type": "cell-based, human", "experimental": "Stimulation of T-cell. Jurkat leukemic T cells were maintained in a humidified atmosphere of 5% CO2/95% air at 37° C. in RPMI-1640 medium (HyClone, Utah, USA) including penicillin, streptomycin and 10% heat-inactivated FBS. Two modes of activations were used for the present experiments: anti-CD3 plus anti-CD28 (CD28-dependent stimulation) and PMA plus ionomycin (CD28-independent stimulation). For experiment of CD28-dependant stimulation, flat-bottom 96-well plates were coated with 10 μg/ml of anti-CD3 for 24 h at 4° C. Wells anti-CD3 were washed twice with PBS. After washing, the unbounded anti-CD3 was removed. Jurkat T-cells (200 μl 2×10^6 cells/ml) with soluble anti-CD28 (1 μg/ml) were then added into the wells. The cells were activated by anti-CD3 already existing in the wells. Upon the activation, the cell solution was stayed for 24 h. The supernatant (100 μl) of cell solution was then used for the measurement of IL-2 by enzyme-linked immuno-sorbent assay (ELISA). For experiment of CD28-indepentant stimulation, 200 μl Jurkat cell (5×10^5 cell/ml) were incubated with PMA (50 nM)/lonomycin (1 μg/ml) for 24 h. 100 μl supernatant was then used for IL-2 measurement by ELISA. […] IL-2 concentration of T-cell was determined by following the instruction from manufacturer (Biosource; California, US). […] Concentration of IL-2 was then measured with microplate reader. […]"}, "[4]": {"biological_target": "T2, CD28-mulg, soluble fusion protein consisting of the extracellular (134 aa) domain of human CD28 fused to … (human; murine, UniProt P10747 19-152)", "T2 construct": "extracellular domain; Bought from ID Labs Inc; purified from CHO transfectant supernatant; Coupled by primary amines to a CM5 sensor chip in all assays; also called imm-CD28; immobilized CD28; not shown: murine IgG2a Fc (233 aa)", "assay": "SPR, CD28-mulg on CM5 chip"}}, "note": "Read-outs that look alike come from different tables or passages of the source.", "data": [{"molecule": "CD80: soluble fusion protein: extracellular (173 aa) domain of human CD80 fused to murine IgG2a Fc", "values": [{"measurement": "binding efficiency", "setting": "[1]", "value": "> 90", "unit": "%"}, {"measurement": "binding capacity ΔR on immobilised CD28", "setting": "[1]; SPR, 10 μg/ml ligand", "value": "~120", "unit": "RU"}]}, {"molecule": "O=C(/C=C/c1ccc(O)c(O)c1)O[C@@H]1C[C@](O)(C(=O)O)C[C@@H](O)[C@H]1O", "note": "[C1, chlorogenic acid (5-O-caffeoylquinic acid)]", "values": [{"measurement": "ability to bind CD28 (peak in HPLC profile after AFTIR)", "setting": "[1]; bound CEE washed off the chip and profiled with HPLC", "value": "can bind CD28"}, {"measurement": "effect on IL-2 response (in words)", "setting": "[2]", "value": "linearly reduces IL-2 response"}, {"measurement": "effect on IL-2 response (in words)", "setting": "[2]; listed as Chlorogenic acid", "value": "downregulates CD28 dependent interleukin-2 (IL-2) expression"}, {"measurement": "effect on IL-2 response (in words)", "setting": "[2]; listed as chlorogenic acid", "value": "downregulating CD28 dependent IL-2 expression"}, {"measurement": "downregulation of IL-2 secretion response", "setting": "[2]; normalized to 100%", "value": "−53", "unit": "%"}, {"measurement": "effect on IL-2 response (in words)", "setting": "[3]", "value": "unable to modulate"}]}, {"molecule": "B1", "values": [{"measurement": "ratio of binding receptor:ligand (mole:mole)", "setting": "[4]", "value": "~0.92 mole CD80 per mole imm-CD28"}]}]}
